From PMC11003488 (Journal of Enzyme Inhibition and Medicinal Chemistry, 2023)

Assays:
Format in all cases: cell-based
786-0 = experiment: NCI-60 SRB growth inhibition, one-dose and five-dose; settings: Homo sapiens
ACHN = experiment: as above; settings: Homo sapiens
COLO 205 = experiment: as above; settings: Homo sapiens
LOX IMVI = experiment: as above; settings: Homo sapiens
T-47D = experiment: as above; settings: Homo sapiens, T47D
PC-3 = experiment: as above; settings: Homo sapiens
HL-60(TB) = experiment: cells; settings: Homo sapiens
SNB-75 = experiment: NCI-60 SRB growth inhibition, one-dose and five-dose; settings: Homo sapiens
SF-268 = experiment: as above; settings: Homo sapiens
CAKI-1 = experiment: as above; settings: Homo sapiens
SK-MEL-28 = experiment: as above; settings: Homo sapiens
SK-MEL-2 = experiment: as above; settings: Homo sapiens, SK-MEL-2, read-out: percent growth inhibition
OVCAR-8 = experiment: as above; settings: Homo sapiens, OVCAR-8, read-out: percent growth inhibition
HCT-15 = experiment: as above; settings: Homo sapiens
CCRF-CEM = experiment: as above; settings: Homo sapiens
NCI-H23 = experiment: as above; settings: Homo sapiens
MOLT-4 = experiment: as above; settings: Homo sapiens
MALME-3M = experiment: as above; settings: Homo sapiens
A498 = experiment: as above; settings: Homo sapiens
NCI-H322M = experiment: as above; settings: Homo sapiens
HCC-2998 = experiment: as above; settings: Homo sapiens
HS 578 T = experiment: as above; settings: Homo sapiens
RPMI-8226 = experiment: as above; settings: Homo sapiens
MDA-MB-468 = experiment: as above; settings: Homo sapiens
NCI/ADR-RES = experiment: as above; settings: Homo sapiens
NCI-H522 = experiment: as above; settings: Homo sapiens
NCI-H226 = experiment: as above; settings: Homo sapiens
M14 = experiment: as above; settings: Homo sapiens
MCF7 = experiment: as above; settings: Homo sapiens
MDA-MB-435 = experiment: as above; settings: Homo sapiens
SNB-19 = experiment: as above; settings: Homo sapiens
U251 = experiment: as above; settings: Homo sapiens
SR = experiment: as above; settings: Homo sapiens
OVCAR-4 = experiment: as above; settings: Homo sapiens
KM12 = experiment: as above; settings: Homo sapiens
K-562 = experiment: as above; settings: Homo sapiens
HT29 = experiment: as above; settings: Homo sapiens
SN12C = experiment: as above; settings: Homo sapiens
IGROV1 = experiment: as above; settings: Homo sapiens
RXF 393 = experiment: as above; settings: Homo sapiens
UACC-257 = experiment: as above; settings: Homo sapiens
OVCAR-3 = experiment: as above; settings: Homo sapiens
EKVX = experiment: as above; settings: Homo sapiens
[1] = read-out: percent growth inhibition

CC(=O)Nc1ccc(/C=C/C(=O)c2cccc(NCc3ccc(NC(C)=O)cc3)c2)cc1 [Compound 5g, (E)-N-(4–(3-(3-((4-acetamidobenzyl)amino)phenyl)-3-oxoprop-1-en-1-yl)phenyl) acetamide]
GI50 (786-0; 786-0): 13.7 µM
inhibition at 10 µM (786-0; 786-0, read-out: percent growth inhibition): 144%
GI50 (ACHN): 5.1 µM
inhibition at 10 µM (ACHN; [1]): 105%
GI50 (COLO 205; COLO 205): 16 µM
inhibition at 10 µM (COLO 205; COLO 205, read-out: percent growth inhibition): 30.7%
GI50 (LOX IMVI): 1.9 µM
inhibition at 10 µM (LOX IMVI; [1]): 191%
GI50 (T-47D): 7.77 µM
inhibition at 10 µM (T-47D; [1]): 46.4%
GI50 (PC-3; PC-3): 11.6 µM
inhibition at 10 µM (PC-3; PC-3, read-out: percent growth inhibition): 54.8%
GI50 (HL-60(TB); HL-60): 7.08 µM
inhibition at 10 µM (HL-60(TB); HL-60, read-out: percent growth inhibition): 100%
GI50 (SNB-75; SNB-75): 4.87 µM
inhibition at 10 µM (SNB-75; SNB-75, read-out: percent growth inhibition): 17%
GI50 (SF-268; SF-268): 18.4 µM
inhibition at 10 µM (SF-268; SF-268, read-out: percent growth inhibition): 78.7%
GI50 (CAKI-1; CAKI-1): 12.2 µM
inhibition at 10 µM (CAKI-1; CAKI-1, read-out: percent growth inhibition): 54.9%
GI50 (SK-MEL-28; SK-MEL-28): 12.7 µM
inhibition at 10 µM (SK-MEL-28; SK-MEL-28, read-out: percent growth inhibition): 98.3%
inhibition at 10 µM (SK-MEL-2): 28.3%
inhibition at 10 µM (OVCAR-8): 129%
GI50 (HCT-15; HCT-15): 3.13 µM
inhibition at 10 µM (HCT-15; HCT-15, read-out: percent growth inhibition): 144%
GI50 (CCRF-CEM): 4.52 µM
inhibition at 10 µM (CCRF-CEM; [1]): 116%
GI50 (NCI-H23; NCI-H23): 14.4 µM
inhibition at 10 µM (NCI-H23; NCI-H23, read-out: percent growth inhibition): 55.1%
GI50 (MOLT-4; MOLT-4): 3.21 µM
inhibition at 10 µM (MOLT-4; MOLT-4, read-out: percent growth inhibition): 116%
GI50 (MALME-3M): 7.11 µM
inhibition at 10 µM (MALME-3M; [1]): 57.5%
GI50 (A498; A498): 14.2 µM
inhibition at 10 µM (A498; A498, read-out: percent growth inhibition): 16.6%
GI50 (NCI-H322M): 13.8 µM
inhibition at 10 µM (NCI-H322M; [1]): 28.7%
GI50 (HCC-2998; HCC 2998): 14.8 µM
inhibition at 10 µM (HCC-2998; HCC 2998, read-out: percent growth inhibition): 137%
GI50 (HS 578 T): 10.6 µM
inhibition at 10 µM (HS 578 T; [1]): 32%
GI50 (RPMI-8226; RPMI-8226): 3.02 µM
inhibition at 10 µM (RPMI-8226; RPMI-8226, read-out: percent growth inhibition): 130%
GI50 (MDA-MB-468; MDA-MB-468): 10 µM
inhibition at 10 µM (MDA-MB-468; MDA-MB-468, read-out: percent growth inhibition): 68.2%
GI50 (NCI/ADR-RES): 16.5 µM
inhibition at 10 µM (NCI/ADR-RES; [1]): 88.2%
GI50 (NCI-H522; NCI-H522): 6.54 µM
inhibition at 10 µM (NCI-H522; NCI-H522, read-out: percent growth inhibition): 159%
GI50 (NCI-H226; NCI-H226): 12.9 µM
inhibition at 10 µM (NCI-H226; NCI-H226, read-out: percent growth inhibition): 126%
GI50 (M14; M14): 12.6 µM
inhibition at 10 µM (M14; M14, read-out: percent growth inhibition): 77%
GI50 (MCF7; MCF7): 2.88 µM
inhibition at 10 µM (MCF7; MCF7, read-out: percent growth inhibition): 107%
GI50 (MDA-MB-435; MDA-MB-435): 10.3 µM
inhibition at 10 µM (MDA-MB-435; MDA-MB-435, read-out: percent growth inhibition): 39%
GI50 (SNB-19; SNB-19): 7 µM
inhibition at 10 µM (SNB-19; SNB-19, read-out: percent growth inhibition): 95.4%
GI50 (U251; U-251): 3.2 µM
inhibition at 10 µM (U251; U-251, read-out: percent growth inhibition): 181%
GI50 (SR): 2.43 µM
GI50 (OVCAR-4; OVCAR-4): 14 µM
inhibition at 10 µM (OVCAR-4; OVCAR-4, read-out: percent growth inhibition): 38.7%
GI50 (KM12; KM12): 13.4 µM
inhibition at 10 µM (KM12; KM12, read-out: percent growth inhibition): 163%
GI50 (K-562; K562): 2.93 µM
inhibition at 10 µM (K-562; K562, read-out: percent growth inhibition): 100%
GI50 (HT29; HT-29): 5.75 µM
inhibition at 10 µM (HT29; HT-29, read-out: percent growth inhibition): 164%
GI50 (SN12C): 4.82 µM
inhibition at 10 µM (SN12C; [1]): 87%
GI50 (IGROV1; IGROV-1): 5.59 µM
inhibition at 10 µM (IGROV1; IGROV-1, read-out: percent growth inhibition): 56.3%
GI50 (RXF 393; RXF 393): 11.3 µM
inhibition at 10 µM (RXF 393; RXF 393, read-out: percent growth inhibition): 158%
GI50 (UACC-257; UACC-257): 12.5 µM
inhibition at 10 µM (UACC-257; UACC-257, read-out: percent growth inhibition): 51.1%
GI50 (OVCAR-3; OVCAR-3): 6.09 µM
inhibition at 10 µM (OVCAR-3; OVCAR-3, read-out: percent growth inhibition): 118%
GI50 (EKVX): 13.5 µM
inhibition at 10 µM (EKVX; [1]): 43.7%
